Like-named read-outs stand apart in the source and are kept apart here.
Key:
rats = experiment: Systolic blood pressure in rats (procedure of Tselepis et al.); type: in vivo, rat
Description: Biochem. Physiol. 87C(1),41-46 (1987), the teachings of which are incorporated herein.

[1] = tested on: Tetrahymena pyriformis cells; experiment: Glycogenolysis in intact Tetrahymena pyriformis cells; type: cell-based; conditions: glucose measured, FIG. 3
Description: The results were obtained using the following procedure: Tetrahymena pyriformis cells, in log phase, are spun down, washed with saline and resuspended in Tyrodes solution. After 30 min of incubation, the compounds III and IV in bovine serum albumin solution are added and aliquots taken at different time intervals. The aliquots are treated for 2 min in boiled water, sonicated and glucose measured by the method of Bergmeyer et al. (Methods of Enzymatic Analysis, 3, 1196 (Academic Press, N.Y. 1974), the teachings of which are incorporated herein.

rabbit platelets = experiment: [3H]Serotonin secretion by platelets; type: cell-based; conditions: Oryctolagus cuniculus, Platelet; 2 min; final concentrations; read-out: 50% secretion of 3H-serotonin at 2 min
Description: The procedure is as follows: PAF and the various test lipid compounds are assessed for platelet stimulatory activity as briefly described. Rabbit platelets, internally labeled with [^3 H]serotonin (New England Nuclear; 28.2 Ci/mmol) are washed on Ficoll-Paque cushions and adjusted to 2.5×10^8 platelets/ml of Tyrode's buffer, pH 7.2. Appropriate dilutions of PAF or the test lipids are prepared in pyrogen-free 0.15M NaCl containing 2.5 mg/ml of crystallized bovine serum albumin; the albumin is required for dispersion of PAF and the test lipids. Four microliters of the various dilutions of PAF and test lipids are added to 200 μl of prewarmed (37° C.) [^3 H]serotonin-labeled platelets in plastic test tubes and the reaction mixture was incubated for 60 s at which time 20 μl of cold 1.5 m formaldehyde were added to stop the reactions. The tubes were immediately cooled to 0° C., centrifuged at 2200×g for 10 min and the supernatants were assayed for percentage of [^3 H]serotonin secretion relative to 100% controls prepared by the addition of Triton X-100 to 200 μl of the starting platelet suspension. The data were plotted linearly and 1 unit of activity was defined as the amount of PAF or test lipids required to effect 50% serotonin release. […]

washed rabbit platelets = experiment: Aggregation of washed rabbit platelets (procedure of Demopoulos et al.); type: cell-based; conditions: for EC50: Oryctolagus cuniculus, Platelet, final concentrations; for cytotoxicity of the aggregation: washed rabbit platelets
[2] = tested on: PAF aggregation of washed rabbit platelets; experiment: Inhibition of PAF (AGEPC) activity / disaggregation during AGEPC-induced aggregation of washed rabbit platelets; type: cell-based; conditions: for IC50: Oryctolagus cuniculus, Platelet
[3] = Table, final molar concentration, for 2 × 10^-10 M AGEPC, read-out: IC50
[4] = against 2×10^-10 M PAF, final concentrations, read-out: IC50 for 2×10^-10 M PAF

Row | Molecule | fall in systolic blood pressure (SBP) (rats) | glycogenolysis [1] | EC50 (rabbit platelets) | EC50 (washed rabbit platelets) | cytotoxicity of the aggregation (washed rabbit platelets) | IC50 [2, 3] | IC50 [2, 4] | effect on aggregation when added during AGEPC-induced aggregation ([2]; added during AGEPC (PAF)-induced aggregation, FIG. 4)
1 | 1-O-alkyl-2-acetyl-sn-glyceryl-3-phosphorylcholine [PAF] | fall in the systolic blood pressure | dramatic influence on glycogenolysis |  |  |  |  |  | 
2 | CCCCCCCCC(O)C(O)CCCCCCCCOCC(O)CO (stereo not shown) [Compound III, 9,10-Dihydroxy-Octadecyl Glycerol] |  |  | 2 µM | 0.2 µM | non-cytotoxic | 16 µM | 16 µM | 
3 | thrombin |  |  |  |  |  |  |  | no effect on platelet aggregation
4 | CCCCCCCCC(OC(C)=O)C(CCCCCCCCOCC(COC(C)=O)OC(C)=O)OC(C)=O (stereo not shown) [Compound IV, Tetra-Acetyl-9,10-Dihydroxy-Octadecyl Glycerol] |  |  | 9 µM | 2 µM | non-cytotoxic | 28 µM | 28 µM | 
